{"source": "patent US7842677B2", "about": "“Synthetic ganglioside derivatives and compositions thereof” (Seneb Biosciences, Inc., priority 2001, dated 2010)", "origin": "cited, not measured here", "test_system": "murine neuroblastoma cells"}
{"substance": "ganglioside GM3", "values": [{"measurement": "growth of neuroblastoma cells (in words)", "result": "inhibit the growth"}]}
